Results on 4 compounds are retold here after publication PMC7307925, “Human Serum Albumin Binding in a Vial: A Novel UV-pH Titration Method To Assist Drug Design” (Journal of Medicinal Chemistry, 2020).

For data set [1], the target named is T1, human serum albumin (HSA) (Homo sapiens, UniProt P02768). Briefly: HSA binding by biomimetic chromatography on immobilized HSA column (Chiralpak-HSA).
The next data set relates to plasma proteins. The following applies: literature data; 45−47 (SI ref 4–7); cited from earlier work.
Data set [2] has as its system human serum albumin (HSA). The following applies: 49 (SI ref 1,2); cited from earlier work.
The target in data set [3] is T1, human serum albumin (HSA). Briefly: UV-pH titration in the presence of HSA (pKa,HSA and pKa shift). The following applies: |pKa − pKa,HSA|, 33.3 μM HSA 1:1.
Description: Next, we investigated HSA binding of APIs by measuring their pKa values in aqueous medium in the absence of HSA and in the presence of HSA (pKa,HSA). […] The UV-pH titrations were performed using a fully automated SiriusT3 instrument (Pion Inc., Forest Row, U.K.). Spectrophotometric determination of pKa values was performed using the built-in fast UV pKa method, the absorbance changes during the titrations were monitored by the dip-probe absorption spectroscopy (D-PAS) method,[52],[53] and evaluation and calculation of pKa values were performed by the SiriusT3Refine software (version 1.1.3.0., Pion Inc., Forest Row, U.K.).
The target in data set [4] is T1, human serum albumin (HSA). Put plainly: HSA binding by rapid equilibrium dialysis (RED). It is filed as in vitro ADME. More on the design: Albumin from human serum (lyophilized powder); purchased Sigma-Aldrich Co., Ltd. (Budapest, Hungary) A9511; host or cells: human serum (natural source). The settings on record: 10 µM compound, 4 g/L HSA in PBS pH 7.4, 37 °C, 4.5 hours. In general terms: In equilibrium dialysis free small molecules cross a membrane that holds back macromolecules.
Description: Rapid equilibrium dialysis measurements.
The Rapid Equilibrium Dialysis (RED) Device (Thermo Scientific™) was used for the
determination of HSA binding % of reference APIs. RED Device inserts (8K MWCO) were fitted
into the reusable Teflon base plate, then 200 µL of samples were placed into the donor chamber
(indicated by the colored retainer ring). Sample solutions were prepared at 10 µM initial
concentration (0.1% DMSO; 0.9% MeCN) by adding 30 µL of 10 mM DMSO stock solutions to
270 µL MeCN, producing a 1 mM solution, then adding 10 µL of the 1 mM solution to 990 µL of
Then 350 µLs of dialysis buffer (PBS,
pH 7.4) were added to the buffer chambers, the unit was covered with sealing tape and incubated
at 37 °C on an orbital shaker (at 300rpm) for 4.5 hours. After incubation the seal was removed and
50 µL aliquots of post-dialysis samples from the donor and buffer chambers were pipetted to
separate microcentrifuge tubes. A corresponding 50 µL of HSA solution was added to the buffer
samples and an equal volume of buffer (PBS, pH 7.4) was added to the donor samples to create
analytically identical sample matrices. Then 300 µLs of precipitation buffer (cold acetonitrile/
water (90:10 v/v%), containing 0.1 % formic acid and 1 µM verapamil as internal standard) were
added to each sample to precipitate the protein and release compounds. The samples were vortexed
and incubated on ice for 30 mins, then centrifuged for 10 mins at 14000×g. After centrifugation
the supernatants (200 µL) were transferred to 96-well polypropylene plates (Agilent, Waldbronn,
Germany) for LC-MS analysis. Each compound was measured in triplicate. Test compound
concentrations in the donor and buffer chambers were determined from peak areas relative to the internal standard. The percentage of the test compound bound was calculated using the following

Data set [5] is described as follows: UV-pH titration, pKa in aqueous medium (SiriusT3 fast UV pKa method). The following applies: ISA-water 0.15 M KCl, 25.0 °C.

SMILES strings stand for the structures. Where “and” joins values, the source holds several entries; their conditions need not be identical. Equal entries are not always repeated. Where two headings read alike, the source gives them in different places. Marks after values point to notes of the source that are not given here.

T1 sequence (P02768 25-609): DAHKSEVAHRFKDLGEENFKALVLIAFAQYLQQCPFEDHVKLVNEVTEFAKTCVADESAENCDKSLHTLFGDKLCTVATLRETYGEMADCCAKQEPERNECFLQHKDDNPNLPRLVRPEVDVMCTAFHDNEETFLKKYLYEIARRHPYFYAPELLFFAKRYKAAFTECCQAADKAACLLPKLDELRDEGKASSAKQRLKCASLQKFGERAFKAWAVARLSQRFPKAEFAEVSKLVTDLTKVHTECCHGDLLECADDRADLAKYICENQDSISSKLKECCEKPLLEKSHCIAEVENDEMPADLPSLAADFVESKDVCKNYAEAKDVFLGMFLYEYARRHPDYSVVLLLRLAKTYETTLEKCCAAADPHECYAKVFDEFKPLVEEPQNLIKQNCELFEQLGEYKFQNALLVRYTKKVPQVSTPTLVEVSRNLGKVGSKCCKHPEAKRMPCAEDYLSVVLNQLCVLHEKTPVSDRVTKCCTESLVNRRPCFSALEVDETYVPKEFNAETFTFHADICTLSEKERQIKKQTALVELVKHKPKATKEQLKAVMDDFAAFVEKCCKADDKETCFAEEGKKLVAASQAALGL

In the case of `NC(N)=Nc1nc(CSCCC(N)=NS(N)(=O)=O)cs1` [Famotidine], the “HSA% (HPLC), experimental data” value in data set [1] is on record as 25.1%. In the data set with plasma proteins, the PPB% was 20%. The “HSA% (HPLC), literature data” value in data set [2] is 14.5%. In addition, the figures for the “ΔpKa1 of UV-pH titration (ΔpKa of monoprotic APIs)” value (shortened to “ΔpKa1 of UV-pH titration”) in data set [3] and in data set [3] (listed as famotidine) were 0.02 and 0.02 ± 0.03, respectively. The “HSA% (RED)” value in data set [4] is 4.4 ± 2.6%.
A word on the pKa: it is the pH at which an ionisable group is half protonated. A lower pKa goes with a stronger acid or weaker base. With `CNC(=O)Oc1ccc2c(c1)[C@]1(C)CCN(C)[C@@H]1N2C` [Physostigmine], the entries for the “HSA% (HPLC), experimental data” value in data set [1] and in data set [1] (listed as physostigmine) were 20% and 20.0%, respectively. Further, the entries for the “ΔpKa1 of UV-pH titration” value in data set [3] and in data set [3] (listed as physostigmine) were 0.05 and 0.05 ± 0.03, respectively. The compound further returned a pKa in data set [5] (Exp. aqueous pKa1 (pKa of monoprotic APIs), absence of HSA) of 8.15 ± 0.02. Also, the “HSA% (RED)” value in data set [4] stood at 9.7 ± 6.6%.
Consider `CN1C(C(=O)Nc2ccccn2)=C(O)c2sc(Cl)cc2S1(=O)=O` [Lornoxicam], for which the “HSA% (HPLC), experimental data” value came to 100% in data set [1] and 100.0% in data set [1] (listed as lornoxicam). The “ΔpKa1 of UV-pH titration” value in data set [3] is 0.87 and 0.87 ± 0.23; in data set [3] (listed as lornoxicam) it was 0.87 ± 0.23 ^d. Also, the “ΔpKa2 of UV-pH titration” value in data set [3] is on record as 1.00; in data set [3] (listed as lornoxicam), 1.00 ± 0.07. The pKa was 0.55 ± 0.06 in data set [5] (ionic strength adjusted water (0.15 M KCl), without HSA, Exp. aqueous pKa1 (pKa of monoprotic APIs), absence of HSA) and 5.09 ± 0.01 in data set [5] (ionic strength adjusted water (0.15 M KCl), without HSA, Exp. aqueous pKa2, absence of HSA). Also, in data set [4], the “HSA% (RED)” value stood at 98.0 ± 0.2%.
`COc1cc(Cc2cnc(N)nc2N)cc(OC)c1OC` [Trimethoprim]: in data set [1], the “HSA% (HPLC), experimental data” value is 37.3%. Moreover, the PPB% in the data set with plasma proteins was 37.5% and 41.5%. Also, the “HSA% (HPLC), literature data” value in data set [2] is 37.6%. For the same compound, the entries for the “ΔpKa1 of UV-pH titration” value in data set [3] and in data set [3] (listed as trimethoprim) were 0.01 and 0.01 ± 0.02, respectively. Moreover, the “HSA% (RED)” value in data set [4] worked out at 3.1 ± 4.6%.
